Reference: article PMC6385645 (Chemical Science, 2018)
Ends that are not written are not given here. Peptide text beside a SMILES is read from it. * marks the point of attachment. X1 = Nc1ncnc2c1ncn2[C@@H]1O[C@H](COP(=O)(O)NC(=O)[C@H](CC(=O)O)N*)[C@@H](O)[C@H]1O; For = O=C*

Tests used:
YejABEF importer = details: 4 vs the peptide lacking the N-formyl moiety 3; cited from earlier work
MccB = experiment: PNP-coupled Michaelis–Menten kinetics of MccB; details: wild-type MccB
wild type MccB = experiment: Competition FP binding assay, wild type MccB, fMccA-FITC probe; parameters: species or system E. coli; details: even at concentrations greater than 5 mM

| Molecule | substrate quality for YejABEF importer (YejABEF importer) | substrate inhibition of MccB (MccB) | displacement of bound FITC-labeled N-formylated 2 (wild type MccB) |
| --- | --- | --- | --- |
| CSCC[C@H](NC=O)C(=O)N[C@@H](CCCNC(=N)N)C(=O)N[C@H](C(=O)NCC(=O)N[C@@H](CC(N)=O)C(=O)N[C@@H](C)C(=O)N[C@@H](CC(=O)O)C(=O)NP(=O)(O)OC[C@H]1O[C@@H](n2cnc3c(N)ncnc32)[C@H](O)[C@@H]1O)[C@@H](C)O [compound 4] (For-MRTGNA-X1) | significantly better substrate | – | – |
| MRTGNAN [compound 1] | – | but not with the desformyl 1 peptide | could not displace |
